Target: T1, IMPDH1 (murine retinal) (Mus musculus, UniProt P50096)
T1 construct: native, murine retina
Assay: IMPDH1 spicule formation in retinas treated with […] MPA; SDS-PAGE mobility shift after injection of its prodrug MMF
Assay type: cell-based

T1 sequence (P50096 whole entry): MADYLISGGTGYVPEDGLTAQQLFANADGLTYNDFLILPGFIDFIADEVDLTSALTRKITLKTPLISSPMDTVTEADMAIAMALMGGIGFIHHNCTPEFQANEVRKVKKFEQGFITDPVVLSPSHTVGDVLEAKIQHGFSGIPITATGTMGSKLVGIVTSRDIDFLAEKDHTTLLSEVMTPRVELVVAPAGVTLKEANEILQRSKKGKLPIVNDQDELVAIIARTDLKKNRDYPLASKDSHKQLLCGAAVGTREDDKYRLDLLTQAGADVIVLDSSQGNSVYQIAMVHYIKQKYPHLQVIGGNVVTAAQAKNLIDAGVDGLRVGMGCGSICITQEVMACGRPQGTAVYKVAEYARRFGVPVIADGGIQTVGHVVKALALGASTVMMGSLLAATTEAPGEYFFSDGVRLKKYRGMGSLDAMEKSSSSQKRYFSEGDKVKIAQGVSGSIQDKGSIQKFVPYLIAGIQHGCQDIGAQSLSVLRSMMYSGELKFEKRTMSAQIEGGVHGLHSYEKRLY

SMILES: COc1c(C)c2c(c(O)c1C/C=C(\C)CCC(=O)O)C(=O)OC2 [mycophenolic acid]
- IMPDH1 spicule formation in retinas treated with 10 μM MPA; SDS-PAGE mobility sh: MPA inhibition of IMPDH1 resulted in the formation and accumulation of IMPDH1 spicules with time

From publication PMC7176436, “Post-translational regulation of retinal IMPDH1 in vivo to adjust GTP synthesis to illumination conditions” (eLife, 2020)
